Series [1] relates to M. tuberculosis (RCMB 010126). Description: microplate Alamar blue assay (MABA), in vitro antimycobacterial activity. Format: cell-based, Mycobacterium tuberculosis. The following applies: for Mean of Inhibition %: test concentration not stated; for MIC: visual MIC. Background: Resazurin is reduced to fluorescent resorufin, in cell work by metabolically active cells.
For series [2], the system named is MCF-7 breast cancer cell line. Also on record: method as in PMID 25499988. The note with it: previous study ref 40, cited from earlier work; for IC50: MCF-7, 72 h; for cytotoxicity (in words): MCF-7.
For series [3], the system named is HepG-2 liver cancer cell line. Also noted: method as in PMID 25499988. The following applies: previous study ref 40, cited from earlier work; for IC50: HepG2, 72 h; for cytotoxicity (in words): HepG2.
In series [4] the test system is A-549 human lung cancer cell line. Also on record: method as in PMID 25499988. The following applies: previous study ref 40, cited from earlier work; for IC50: A549, 72 h; for cytotoxicity (in words): A549.
The subject of series [5] is PC-3 prostate cancer cell line. Description: SRB cytotoxicity assay, PC-3. The following applies: for IC50: 72 h; for cytotoxicity (in words): PC-3. A general note: In SRB staining, fixed cells bind dye roughly in proportion to their protein.
For series [6], the system named is HT-29 colon cancer cell line. Description: SRB cytotoxicity assay, HT-29. The note with it: for IC50: Homo sapiens, HT-29, 72 h; for cytotoxicity (in words): HT-29.
Setting [7] is: M. tuberculosis RCMB 010126, MABA.
[8] abbreviates: Mycobacterium tuberculosis, RCMB010126, M. tuberculosis RCMB 010126, MABA, read-out: MIC.

≈ marks a conversion by molar mass, not a printed value. Like-named read-outs stand apart in the source and are kept apart here. Bounds are passed on as bounds.

What is called MIC is the least concentration at which growth counts as inhibited. As usually defined, the melting point is the temperature of the solid-liquid transition. Broadly, the IC50 is the concentration that inhibits the measured activity by half.

As for `Cc1nc(-c2ccccc2)ccc1C(=O)NN` [Compound 4a], the “Mean of Inhibition %” value in series [1] (setting [7]) is listed as 42.52 ± 0.63%. Further, the MIC in series [1] (setting [8]) stood at 25 µg/mL (≈ 110 µM).

`Cc1ccc(-c2ccc(C(=O)NN)c(C)n2)cc1` [Compound 4b]: the “Mean of Inhibition %” value in series [1] (setting [7]) stood at 36.33 ± 0.58%. Moreover, in series [1] (setting [8]), the MIC came out at 25 µg/mL (≈ 104 µM).

Consider `Cc1nc(-c2ccc(F)cc2)ccc1C(=O)NN` [Compound 4c, 6-(4-fluorophenyl)-2-methylnicotinohydrazide], for which the “Mean of Inhibition %” value in series [1] (setting [7]) was “NA (No Activity (>100 µg/mL))”. For the same compound, in series [1] (M. tuberculosis, MABA), the “antimycobacterial activity (in words)” value is listed as “complete loss of activity”. In series [1] (setting [8]), the MIC is over 100 µg/mL.

Regarding `Cc1nc(-c2ccc(Cl)cc2)ccc1C(=O)NN` [Compound 4d], in series [1] (setting [7]), the MIC is reported as 100 µg/mL (≈ 382 µM) and the “Mean of Inhibition %” value stood at 12.45 ± 0.58%. Moreover, the MIC in series [1] (setting [8]) turned out to be 50 µg/mL (≈ 191 µM).

Turning to `Cc1nc(-c2ccc(Br)cc2)ccc1C(=O)NN` [Compound 4e, 6-(4-Bromophenyl)-2-methylnicotinohydrazide], the melting point fell in the range of 213 to 215 °C. Besides, in series [1] (setting [7]), the MIC amounted to 50 µg/mL (≈ 163 µM) and the “Mean of Inhibition %” value came to 20.63 ± 0.63%. The MIC in series [1] (setting [8]) was determined as 100 µg/mL (≈ 327 µM).

In the case of `COc1ccc(-c2ccc(C(=O)NN)c(C)n2)cc1` [Compound 4f, 6-(4-Methoxyphenyl)-2-methylnicotinohydrazide], the “Mean of Inhibition %” value in series [1] (setting [7]) was found to be 42.63 ± 0.16%. In series [1] (setting [8]), the MIC came out at 25 µg/mL (≈ 97.2 µM).

On to `COc1ccc(-c2ccc(C(=O)NN)c(C)n2)cc1OC` [Compound 4g, 6-(3,4-Dimethoxyphenyl)-2-methylnicotinohydrazide], for which the melting point lay in the range of 204 to 205 °C. The “Mean of Inhibition %” value in series [1] (setting [7]) is listed as 22.63 ± 0.16%. Further, the MIC in series [1] (setting [8]) came out at 50 µg/mL (≈ 174 µM).

As to `COc1cc(-c2ccc(C(=O)NN)c(C)n2)cc(OC)c1OC` [Compound 4h, 2-Methyl-6-(3,4,5-trimethoxyphenyl)nicotinohydrazide], in series [1] (setting [7]), the “Mean of Inhibition %” value is on record as 18.32 ± 0.72%. Moreover, in series [1] (setting [8]), the MIC is 50 µg/mL (≈ 158 µM).

Take `Cc1nc(-c2cccs2)ccc1C(=O)NN` [Compound 4i]: the “Mean of Inhibition %” value in series [1] (setting [7]) was found to be 22.63 ± 0.20%. In addition, the MIC in series [1] (setting [8]) turned out to be 50 µg/mL (≈ 214 µM).

On to `Cc1nc(-c2ccc(Br)cc2)ccc1C(=O)NN=Cc1ccccc1` [Compound 7a, N′-Benzylidene-6-(4-bromophenyl)-2-methylnicotinohydrazide], for which the melting point was 270 to 272 °C. Further, the “Mean of Inhibition %” value in series [1] (setting [7]) is “NA (No Activity (>100 µg/mL))”. In series [1] (setting [8]), the MIC is over 100 µg/mL.

As to `Cc1nc(-c2ccc(Br)cc2)ccc1C(=O)NN=Cc1ccc(F)cc1` [Compound 7b, 6-(4-Bromophenyl)-N'-(4-fluorobenzylidene)-2-methylnicotinohydrazide], the melting point lay within 252 to 254 °C. Besides, in series [1] (setting [7]), the “Mean of Inhibition %” value is “NA (No Activity (>100 µg/mL))”. For the same compound, the minimal inhibitory concentration (MIC) in series [1] (setting [8]) was over 100 µg/mL.

Consider `Cc1nc(-c2ccc(Br)cc2)ccc1C(=O)NN=Cc1ccc(Cl)cc1` [Compound 7c, 6-(4-Bromophenyl)-N'-(4-chlorobenzylidene)-2-methylnicotinohydrazide], for which the melting point lay in the range of 265 to 267 °C. Further, in series [1] (setting [7]), the “Mean of Inhibition %” value is recorded as “NA (No Activity (>100 µg/mL))”. In addition, the MIC in series [1] (setting [8]) was over 100 µg/mL.

In turn, `Cc1nc(-c2ccc(Br)cc2)ccc1C(=O)NN=Cc1ccc(Cl)cc1Cl` [Compound 7d, 6-(4-Bromophenyl)-N'-(2,4-dichlorobenzylidene)-2-methylnicotinohydrazide] registered a melting point of 269 to 271 °C. Further, in series [1] (setting [7]), the “Mean of Inhibition %” value amounted to 13.57 ± 0.72%. The MIC in series [1] (setting [8]) came out at 100 µg/mL (≈ 216 µM).

`COc1ccc(C=NNC(=O)c2ccc(-c3ccc(Br)cc3)nc2C)cc1` [Compound 7e, 6-(4-Bromophenyl)-N'-(4-methoxybenzylidene)-2-methylnicotinohydrazide] displayed a melting point of 251 to 253 °C. In addition, in series [1] (setting [7]), the “Mean of Inhibition %” value is listed as “NA (No Activity (>100 µg/mL))”. Also, the minimal inhibitory concentration (MIC) in series [1] (setting [8]) is over 100 µg/mL.

Take `Cc1nc(-c2ccc(Br)cc2)ccc1C(=O)NN=Cc1ccc2ccccc2c1` [Compound 7f, 6-(4-Bromophenyl)-2-methyl-N'-(naphthalen-2-ylmethylene)nicotinohydrazide]: the melting point lay within 273 to 275 °C. Moreover, in series [1] (setting [7]), the “Mean of Inhibition %” value turned out to be 14.32 ± 0.58%. Moreover, the MIC in series [1] (setting [8]) came out at 100 µg/mL (≈ 225 µM).

On to `Cc1nc(-c2ccc(F)cc2)ccc1C(=O)N/N=C1\C(=O)Nc2ccccc21` [Compound 8a], for which the IC50 in series [2], in series [3], in series [4], in series [5] and in series [6] was over 200 µM throughout. Besides, the “Mean of Inhibition %” value in series [1] (setting [7]) stood at 31.44 ± 0.58%. In addition, in series [1] (setting [8]), the MIC turned out to be 25 µg/mL (≈ 66.8 µM).

On to `Cc1nc(-c2ccc(F)cc2)ccc1C(=O)N/N=C1\C(=O)Nc2ccc(Cl)cc21` [Compound 8b], for which the IC50 in series [2], in series [3], in series [4], in series [5] and in series [6] was over 200 µM in each case. Further, the “cytotoxicity (in words)” value in series [2], in series [3], in series [4], in series [5] and in series [6] was “devoid of apparent cytotoxicity” each time. Also, the MIC in series [1] (setting [7]) and in series [1] (setting [8]) was 12.5 µg/mL (≈ 30.6 µM) each time. Besides, the “Mean of Inhibition %” value in series [1] (setting [7]) stood at 52.63 ± 0.58%.

For the compound `Cc1nc(-c2ccc(F)cc2)ccc1C(=O)N/N=C1\C(=O)Nc2ccc(Br)cc21` [Compound 8c], the IC50 in series [2], in series [3], in series [4], in series [5] and in series [6] was over 200 µM each time. For the same compound, the “cytotoxicity (in words)” value in series [2], in series [3], in series [4], in series [5] and in series [6] was “devoid of apparent cytotoxicity” throughout. In series [1] (setting [7]), the “Mean of Inhibition %” value is given as 77.42 ± 0.93%. The MIC in series [1] (setting [8]) was determined as 6.25 µg/mL (≈ 13.8 µM).

As to `COc1cccc2c1C(=O)c1c(O)c3c(c(O)c1C2=O)C[C@@](O)(C(=O)CO)C[C@@H]3O[C@H]1C[C@H](N)[C@H](O)[C@H](C)O1` [Doxorubicin, reference compound], the IC50 is 6.1 ± 1.95 µM in series [2]; 6.9 ± 2.05 µM in series [3]; 7.6 ± 1.37 µM in series [4]; 6.5 ± 1.07 µM in series [5]; 7.3 ± 1.11 µM in series [6].

For `NNC(=O)c1ccncc1` [Isoniazide, Isoniazid, reference compound], the MIC in series [1] (setting [8]) turned out to be 0.75 µg/mL (≈ 5.47 µM).

As for `NC(=O)c1cnccn1` [Pyrazinamid, pyrazinamide, reference compound], the “Mean of Inhibition %” value in series [1] (setting [7]) is listed as 93.25 ± 0.63%. For the same compound, the MIC in series [1] (setting [8]) amounted to 3.21 µg/mL (≈ 26.1 µM).
